Test results: patent US11141429B2, “Composition and use of macro-minerals to lower postprandial glycemic response and reduce body weight” (American University of Beirut, priority 2016, dated 2021)

Columns and labels:
Format in all cases: in vivo, human
[1] = tested on: healthy male subjects; experiment: Experiment 1: effect of phosphorus ingestion on oral glucose tolerance test (OGTT)
Procedure: (§1) The example was comprised of two experiments. Healthy male subjects were recruited to perform the experiments (Table 1). Placebo (cellulose) or P (125 mg of potassium phosphate per tablet) tablets, which had similar weight and color, were administered to subjects in a randomized order to prevent order-of-treatment effect. The consent forms were obtained from patients.
Seven overnight fasted subjects (age (mean±SEM): 23.2±1.83 years; BMI: 22.65±0.82 kg/m2) (Table 1: Experiment 1) were asked to attend 3 experimental sessions that were separated by a minimum of 3 days. Sessions included the consumption of either 500 mg of P (4 tablets), a glucose solution (75 g glucose) with 4 Placebo tablets, or a glucose solution (75 g glucose) with 500 mg P. All were ingested with 250 ml of cold water. Blood was withdrawn at base-line and monitored till 240 min (min) after consumption.
(§2) Serum was separated from collected blood samples and stored at −80° C. for later analysis of glucose, total P, tri-glyceride and insulin. Glucose was measured from venous samples. Insulin sensitivity was estimated by the method of Caumo A, Bergman R N, Cobelli C. Insulin sensitivity from meal tolerance tests in normal subjects: a minimal model index. J Clin. Endocrinol. Metab. 2000; 85:4396-402 and expressed as (×10^4 dl·kg^−1·min^−1·μUml^−1). The method is based on the kinetic of both glucose and insulin through coupling their rate of appearance into circulation following oral glucose ingestion. It is based on simple area under the curve type of calculation and was validated in normal subjects in whom their calculated insulin sensitivity was strongly correlated to that of frequently […] sampled IV glucose test (FSIGT). In addition, index of insulin sensitivity was calculated using the composite equation proposed by Matsuda M, DeFronzo R A. Insulin sensitivity indices obtained from oral glucose tolerance testing: comparison with the euglycemic insulin clamp. Diabetes Care. 1999; 22 (9):1462-7.
(§3) Data are presented as means±SEM. Paired t-tests were used to compare between treatments and to detect the difference from baseline within each treatment. Repeated Measure ANOVA was run to test the effect of treatment groups over time on each of the dependent variables (P, Glucose and insulin). The level of significance was fixed at P <0.05.

[2] = tested on: healthy male subjects; experiment: Experiment 2: effect of pre-phosphorus ingestion (60 min before glucose) on OGTT
Procedure: as §1
Based on data from experiment 1, peak serum P concentration (60 min) was associated with significant decrease in serum glucose and insulin levels. Thus, experiment 2 was designed to investigate whether P intake one hour prior to glucose ingestion would potentiate the effect of P on postprandial glucose and insulin levels. Eight over-night fasted subjects (age: 27.3±1.68 years; BMI: 23.5±0.97 kg/m^2) (Table 1: Experiment 2) attended 2 experimental sessions that were separated by a minimum of 3 days. Subjects were given placebo or P (500 mg) tab-lets 60 min prior to glucose ingestion. Blood was drawn at baseline (−60 min) and monitored till 240 min relative to glucose ingestion.
as §2, §3

[3] = tested on: subjects (unrestrained eaters, stable body weight); experiment: Ad libitum energy intake at subsequent meal after preloads with or without phosphorus; conditions: for Energy intake (ad libitum) at subsequent meal +P: lunch 80 min after preload, mean ± s.d.
Procedure: A preliminary set of experiments was conducted to investigate the effect of increased phosphorus content of a preload solution on subsequent food intake. The effect of water, sucrose (50 g), fructose (40 g fructose plus 10 g glucose) or glucose (50 g) preloads was examined with or without the addition of 500 mg of phosphorus (mixture of potassium and sodium phosphate). This work was approved by the Institutional Review Board of the American University of Beirut and written informed consent was obtained from all subjects. In brief, participants who had stable body weight for the last 3 months and were unrest-rained eaters as assessed by the three-factor eating questionnaire were selected. All subjects were regular breakfast consumers and were asked to maintain their regular dietary and physical activity habits throughout the course of the example. Subjects were asked to avoid alcohol consumption, as well as any unusual strenuous exercise 24 h before the example. After a minimum of a 12-h fast, they consumed a standard breakfast (440 kcal) 4 h before presenting for the example. Participants chose a time between 1100 and 1400 to be convenient to perform the test; thereafter, they were asked to arrive at the same time on the same day of the week for the second study session. Thus, each experiment used a within-subject design, wherein each participant served as his or her own control.
In each experiment, two chilled preloads (with or without added phosphorus) were offered in a blind randomized order so as to control for the order-of-treatment effect. Each subject presented for two study days separated by a minimum of 1 week. […] At 80 min after the preload, an ad libitum lunch, consisting of standard pizza and water, was offered. Subjects were asked to eat freely until they felt ‘comfortably full’; both food and water intakes were measured. Water intake was measured by weight (g) and food or energy intake (kcal) was obtained from the overall weight of pizza consumed.

[4] = tested on: lean male subjects; experiment: Postprandial energy expenditure after high carbohydrate meal with or without P (ventilated hood); conditions: 500 Kcal high carbohydrate meal with 500 mg of P
Procedure: The objective was to determine the effect of phosphorus (P) ingestion with high carbohydrate meal on postprandial energy expenditure. P ingestion increases postprandial thermogenesis of the subjects.
A cross over study was conducted on six lean male subjects. Subjects received a 500 Kcal high carbohydrate meal (CHO: 65% E; Fat: 31% E; Protein: 4% E) with (500 mg of P) or without P. Energy expenditure was measured at baseline and at 30 minute intervals for 4 hours following meal ingestion using a ventilated hood and canopy system COSMED QUARK CPET unit.

[5] = tested on: overweight/obese adults; experiment: 12-week double-blind randomized placebo-controlled phosphorus supplementation study
Procedure: Participants: After approval of the study by the institutional review board at the American University of Beirut (Beirut, Lebanon), 63 adults aged 18 to 45 years with a BMI ≥25 kgm−2, who provided signed informed consent, were recruited from the general public using poster advertisements or direct approach. Exclusion criteria included glomerular filtration rate of 60 ml min−1 per 1.73 m^2, presence of any significant medical disease, pregnancy or lactation, regular administration of drugs that affect body weight and weight change of ≥3% within 3 months before the study. The enrollment of 40 subjects (20 per group) would detect a 10% change in weight of the placebo group, assuming the latter having a mean weight of 90 kg and s.d. of 10 kg, with 80% power and an a of 5%.
This double-blind, randomized, controlled study allocated subjects into placebo group (n=21) or phosphorus group (n=26). Participants were requested to take three tablets containing either 375 mg phosphorus or a placebo (Nutricap Labs, Farmingdale, N.Y., USA) with each main meal (breakfast, lunch and dinner) for 12 weeks. They were asked to maintain regular dietary and physical activity habits during the entire study course and avoid alcohol consumption and any strenuous exercise 24 h before their visits (at baseline, 6 weeks and 12 weeks). Assignment to intervention or control group was made by having the principle investigator (corresponding author) ask the eligible subjects to blindly draw an envelope from a large box of 100 opaque, sealed envelopes (50 for each group), each containing a 2-cm by 2-cm paper with a written code designating intervention or control. There were no detectable differences in size or weight between intervention and control envelopes. In addition, both researchers and participants were blinded for the type of supplements that were similar in size, shape, color and odor.
Subjects were asked to attend the research unit at baseline and after 6 and 12 weeks of participation. At baseline, anthropometric measurements and blood samples were collected and a subjective appetite questionnaire based on Wilson et al. Appetite assessment: simple appetite questionnaire predicts weight loss in community-dwelling adults and nursing home residents. AJCN 2005; 82:1074-1081 was completed. Participants were given a 6-week supply of the allocated supplement and were asked to attend the research unit at the end of this period. At 6 weeks, remaining tablets were collected and counted in order to assess adherence to the allocated intervention. Participants were then given a supply of the same type of supplementation for the consequent 6 weeks and were asked to complete the subjective appetite questionnaire. At 12 weeks, data were collected similar to the baseline visit, and remaining tablets were counted to assess compliance. Individuals who consumed […] of the allocated tablets were excluded. Body weight and height (without shoes) were measured to the nearest 0.1 kg and 0.1 cm, using a calibrated Seca balance (Hamburg, Germany) and a portable stadiometer, respectively. […] Serum phosphorus, creatinine, C-reactive protein, total cholesterol, high-density lipoprotein cholesterol, triglyceride and glucose levels were measured using the Vitros 350 analyzer (Ortho Clinical Diagnostics, Johnson and Johnson, Buckinghamshire, UK). […] Fasting insulin concentration was measured using the ELISA kit (Diametra Millipore, Billerica, Mass., USA). […]

[6] = Experiment 2 (n = 8), 500 mg P 60 min prior to 75 g glucose, mean ± SEM

`[P]` [Phosphorus, phosphorus] was tested, and the Postprandial insulin concentration ([1]; 500 mg P alone) was “did not alter postprandial insulin concentration”, the “Postprandial serum P” value ([1]; 500 mg P alone) was “increased serum P significantly” and the “Decrease in postprandial serum glucose concentration” value ([1]; 500 mg P alone, during the experimental session (240 min), believed to be the result of fasting) was “around 5 mg/dl”. For the same compound, the “Insulin sensitivity [29]” value ([1]; Experiment 1 (n = 7), 500 mg P co-ingested with 75 g glucose, mean ± SEM, Caumo et al. formula) was 20.22 ± 6.65 ×10^4 dl·kg^−1·min^−1·μUml^−1, the “Insulin sensitivity index [30]” value ([1]; Experiment 1 (n = 7), 500 mg P co-ingested with 75 g glucose, mean ± SEM, Matsuda composite equation) was 7.00 ± 1.06 and the “Insulin levels vs glucose treatment” value ([1]; G+P (75 g glucose + 500 mg P), time 60 min, P=0.002) was “significantly lower”. The “Magnitude of increase in postprandial serum glucose vs glucose treatment” value ([1]; G+P (75 g glucose + 500 mg P), time 60 min, P=0.016) was “significantly lower”, the “Magnitude of insulin increase vs placebo preload” value ([2]; 500 mg P preload 60 min before 75 g glucose) was “modestly lower” and the “Serum P levels following P ingestion” value ([2]; 500 mg P preload 60 min before glucose, time 0 and 15 min, then returned to baseline) was “increased significantly”. The “Insulin sensitivity [29]” value [2, 6] was 18.39 ± 3.28 ×10^4 dl·kg^−1·min^−1·μUml^−1, the “Insulin sensitivity index [30]” value [2, 6] was 8.88 ± 0.78 and the “Energy intake (ad libitum) at subsequent meal +P” value ([3]; Fructose (40 g fructose plus 10 g glucose) preload with 500 mg added phosphorus) was 676 ± 404 kcal. For the same compound, the “Energy intake (ad libitum) at subsequent meal +P” value ([3]; Glucose (50 g) preload with 500 mg added phosphorus) was 652 ± 291 kcal, the “Energy intake (ad libitum) at subsequent meal +P” value ([3]; Sucrose (50 g) preload with 500 mg added phosphorus) was 532 ± 341 kcal and the “Energy intake (ad libitum) at subsequent meal +P” value ([3]; Water preload with 500 mg added phosphorus) was 1119 ± 210 kcal. For the same compound, the “Reduction in energy intake at the subsequent meal” value (from here on “Reduction in energy intake”) ([3]; phosphorus added to fructose preload) was 35%, the “Reduction in energy intake” value ([3]; phosphorus added to glucose preload) was 25% and the “Reduction in energy intake” value ([3]; phosphorus added to sucrose preload) was 33%. For the same compound, the “Reduction in energy intake” value ([3]; phosphorus added to water preload) was 27%, the “Postprandial energy expenditure vs placebo” value ([4]; 4 hours, p=0.007) was “significantly higher” and the “Fat oxidation (%)” value ([4]; p=0.022) was “significant rise”. The “Carbohydrate oxidation (%)” value ([4]; p=0.023) was “decreased”, the “Change in BMI from baseline” value ([5]; 375 mg phosphorus with each main meal, 12 weeks, 95% CI −0.59 to 0.12, P=0.01 vs placebo) was −0.24 kgm−2 and the “Decrease in body weight from baseline” value ([5]; 375 mg phosphorus with each main meal, 12 weeks, 95% CI −1.69 to 0.40, P=0.01 vs placebo) was 0.65 kg. The “Reduction in waist circumference from baseline” value ([5]; 375 mg phosphorus with each main meal, 12 weeks, 95% CI −4.90 to −2.33) was 3.62 cm, the “Changes in subjective appetite scores (appetite, quantity of food to reach fullness, taste of food, number of snacks) vs placebo” value ([5]; baseline to 12 weeks) was “significantly reduced” and the Side effects ([5]; over the experimental period (12 weeks)) was “No side effects were reported”.
